In patent publication US20240158446A1, “CYCLIC COMPOUND HAVING SELECTIVE INHIBITORY ACTION ON KRAS OVER HRAS AND NRAS” (CHUGAI SEIYAKU KABUSHIKI KAISHA, priority 2021, published 2024):

Assays:
[1] = target: GDP-bound HRAS wild-type protein (Homo sapiens, UniProt P01112); assay: Binding to HRAS by surface plasmon resonance (SPR), Single Cycle Kinetics; conditions: for HRAS/KRAS (ratio of KD value with respect to GDP-bound HRAS wild-type protein to KD value with respect to KRAS): SPR KD ratio HRAS/KRAS, class symbols
[2] = target: GDP-bound NRAS wild-type protein (Homo sapiens, UniProt P01111); assay: Binding to NRAS by surface plasmon resonance (SPR), Single Cycle Kinetics; conditions: for NRAS/KRAS (ratio of KD value with respect to GDP-bound NRAS wild-type protein to KD value with respect to KRAS): SPR KD ratio NRAS/KRAS, class symbols
[3] = SPR, GDP-bound HRAS wild-type protein vs GDP-bound KRAS wild-type protein
[4] = SPR, GDP-bound NRAS wild-type protein vs GDP-bound KRAS wild-type protein

GDP-bound NRAS wild-type protein, sequence (P01111 whole entry): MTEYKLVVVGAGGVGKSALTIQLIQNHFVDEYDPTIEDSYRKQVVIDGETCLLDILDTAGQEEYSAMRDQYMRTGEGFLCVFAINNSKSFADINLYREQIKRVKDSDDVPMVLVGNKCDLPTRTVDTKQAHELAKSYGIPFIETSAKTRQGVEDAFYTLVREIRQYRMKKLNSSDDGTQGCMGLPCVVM
GDP-bound HRAS wild-type protein, sequence (P01112 whole entry): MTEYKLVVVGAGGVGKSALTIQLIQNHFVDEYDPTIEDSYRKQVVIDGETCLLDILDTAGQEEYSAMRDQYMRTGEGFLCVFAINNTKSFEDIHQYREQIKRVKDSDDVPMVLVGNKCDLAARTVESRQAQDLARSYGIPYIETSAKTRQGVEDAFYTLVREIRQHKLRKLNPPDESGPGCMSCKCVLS

Row | SMILES | HRAS/KRAS (ratio of KD value for HRAS to KD value for KRAS) [1, 3] | NRAS/KRAS (ratio of KD value for NRAS to KD value for KRAS) [2, 4] | HRAS/KRAS (ratio of KD value with respect to GDP-bound HRAS wild-type protein to KD value with respect to KRAS) [1] | NRAS/KRAS (ratio of KD value with respect to GDP-bound NRAS wild-type protein to KD value with respect to KRAS) [2] | further results
1 | CC[C@H](C)[C@@H]1NC(=O)[C@H](CC(C)C)N(C)C(=O)C[C@@H](C(=O)N2CCOCC2)N(C)C(=O)[C@H](C2CCCC2)N(C)C(=O)[C@](C)(CC)NC(=O)[C@@H]2CCCN2C(=O)[C@H](CCc2cc(F)c(C(F)(F)F)c(F)c2)NC(=O)CN(C)C(=O)[C@H](Cc2ccc(C(F)(F)F)cc2)N2CCCCC[C@@H](C2=O)N(C)C(=O)CN(C)C1=O [PP0500] |  |  |  |  | HRAS/KRAS (ratio of KD value with respect to HRAS to KD value with respect to KRAS) [1, 3]: B (a compound having 3 or more and less than 10 is denoted as B); NRAS/KRAS (ratio of KD value with respect to NRAS to KD value with respect to KRAS) [2, 4]: B (a compound having 3 or more and less than 10 is denoted as B)
2 | CCC[C@H]1C(=O)N[C@@H]([C@@H](C)CC)C(=O)N(CCC)CC(=O)N(C)[C@H]2C/C=C\CCN(C2=O)[C@@H](Cc2ccc(C)cc2)C(=O)N(C)CC(=O)N[C@@H](CCc2ccc(C(F)(F)F)c(OC)c2)C(=O)N2C[C@H](OCC)C[C@H]2C(=O)NC2(CC(C)(C)C2)C(=O)N(C)[C@@H](C2CCCC2)C(=O)N(C)[C@H](C(=O)N(C)C)CC(=O)N1C [PP2054] | A (a compound having 10 or more and less than 20 is denoted as A) | A (a compound having 10 or more and less than 20 is denoted as A) |  |  | 
3 | CCC[C@H]1C(=O)N[C@@H]([C@@H](C)CC)C(=O)N(C2CC2)CC(=O)N(C)[C@H]2C/C=C\CCN(C2=O)[C@@H](Cc2ccc(C)cc2)C(=O)N(C)CC(=O)N[C@@H](CCc2ccc(C3CC3)c(OC)c2)C(=O)N2C[C@H](OCC)C[C@H]2C(=O)NC2(CC(C)(C)C2)C(=O)N(C)[C@@H](C2CCCC2)C(=O)N(C)[C@H](C(=O)N(C)C)CC(=O)N1C [PP2883] |  |  | A (a compound having 10 or more and less than 20 is denoted as A) | A (a compound having 10 or more and less than 20 is denoted as A) | 
4 | CCC[C@H]1C(=O)N[C@@H]([C@@H](C)CC)C(=O)N(C)CC(=O)N(C)[C@H]2C/C=C\CCN(C2=O)[C@@H](Cc2ccc(C(F)(F)F)cc2)C(=O)N(C)CC(=O)N[C@@H](CCc2ccc(C(F)F)c(OC)c2)C(=O)N2C[C@H](OCC)C[C@H]2C(=O)NC2(CC(C)(C)C2)C(=O)N(C)[C@@H](C2CCCC2)C(=O)N(C)[C@H](C(=O)N(C)C)CC(=O)N1C [PP2868] |  |  | A (a compound having 10 or more and less than 20 is denoted as A) | A (a compound having 10 or more and less than 20 is denoted as A) | 
5 | CC[C@H](C)[C@@H]1NC(=O)[C@H](CC(C)C)N(C)C(=O)C[C@@H](C(=O)N2CCOCC2)N(C)C(=O)[C@H](C2CCCC2)N(C)C(=O)C2(CCC2)NC(=O)[C@@H]2[C@H](OC)CCN2C(=O)[C@H](CCc2cc(F)c(C(F)(F)F)c(F)c2)NC(=O)CN(C)C(=O)[C@H](Cc2ccc(C(F)(F)F)cc2)N2CCCC[C@@H](C2=O)N(C)C(=O)CN(C)C1=O [PP1078] | B (a compound having 3 or more and less than 10 is denoted as B) | B (a compound having 3 or more and less than 10 is denoted as B) |  |  | 
6 | CCO[C@@H]1C[C@H]2C(=O)NC3(CCC3)C(=O)N(C)[C@@H](C3CCCC3)C(=O)N(C)[C@H](C(=O)N(C)C)CC(=O)N(C)[C@@H](CC)C(=O)N[C@@H]([C@@H](C)CC)C(=O)N3CCC[C@H]3C(=O)N(C)[C@H]3C/C=C\CCN(C3=O)[C@@H](Cc3ccc(C(F)(F)F)cc3)C(=O)N(C)CC(=O)N[C@@H](CCc3cc(F)c(C(F)(F)F)c(F)c3)C(=O)N2C1 [PP1056] | A (a compound having 10 or more and less than 20 is denoted as A) | A (a compound having 10 or more and less than 20 is denoted as A) |  |  | 
7 | CCC(CC)[C@H]1C(=O)N(C)[C@H](C(=O)N(C)C)CC(=O)N(C)[C@@H](COC)C(=O)N[C@@H]([C@@H](C)CC)C(=O)N(C)CC(=O)N(C)[C@H]2C/C=C\CCN(C2=O)[C@@H](Cc2ccc(C)cc2)C(=O)N(C)CC(=O)N[C@@H](CCc2cc(F)c(C(F)(F)F)c(F)c2)C(=O)N2CCCCC[C@H]2C(=O)NC2(CC(C)(C)C2)C(=O)N1C [PP2960] |  |  | A (a compound having 10 or more and less than 20 is denoted as A) | A (a compound having 10 or more and less than 20 is denoted as A) | 
8 | CCO[C@@H]1C[C@H]2C(=O)NC3(CCC3)C(=O)N(C)[C@@H](C3CCCC3)C(=O)N(C)[C@H](C(=O)N(C)CC)CC(=O)N(C)[C@@H](CC(C)C)C(=O)N[C@@H]([C@@H](C)CC)C(=O)N(C)CC(=O)N(C)[C@H]3C/C=C\CCN(C3=O)[C@@H](Cc3ccc(C(F)(F)F)cc3)C(=O)N(C)CC(=O)N[C@@H](CCc3ccc(C(F)(F)F)c(Cl)c3)C(=O)N2C1 [PP2847] |  |  | A (a compound having 10 or more and less than 20 is denoted as A) | A (a compound having 10 or more and less than 20 is denoted as A) | 
9 | CCO[C@@H]1C[C@H]2C(=O)NC3(CCC3)C(=O)N(C)[C@@H](C3CCCC3)C(=O)N(C)[C@H](C(=O)N3CCOCC3)CC(=O)N(C)[C@@H](CC(C)C)C(=O)N[C@@H]([C@@H](C)CC)C(=O)N(C)CC(=O)N(C)[C@H]3C[C@H]4C[C@H]4CN(C3=O)[C@@H](Cc3ccc(C(F)(F)F)cc3)C(=O)N(C)CC(=O)N[C@@H](CCc3cc(F)c(C(F)(F)F)c(F)c3)C(=O)N2C1 [PP0829] | C (A compound having a KD ratio of 0.1 or more and less than 3 is denoted as C) | B (a compound having 3 or more and less than 10 is denoted as B) |  |  | 
10 | CCC(CC)[C@H]1C(=O)N(C)[C@H](C(=O)N(C)C)CC(=O)N(C)[C@@H](COC)C(=O)N[C@@H]([C@@H](C)CC)C(=O)N(C)CC(=O)N(C)[C@H]2C/C=C\CCN(C2=O)[C@@H](Cc2ccc(C)cc2)C(=O)N(C)CC(=O)N[C@@H](CCc2ccc(Cl)c(Cl)c2)C(=O)N2CCCCC[C@H]2C(=O)NC2(CC(C)(C)C2)C(=O)N1C [PP2974] | A (a compound having 10 or more and less than 20 is denoted as A) | A (a compound having 10 or more and less than 20 is denoted as A) |  |  | 
11 | CCO[C@@H]1C[C@H]2C(=O)NC3(CCC3)C(=O)N(C)[C@@H](C3CCCC3)C(=O)N(C)[C@H](C(=O)N(C)C)CC(=O)N(C)[C@@H](CC)C(=O)N[C@@H]([C@@H](C)CC)C(=O)N(C)CC(=O)N(C)[C@H]3CC(C)=C(C)CN(C3=O)[C@@H](Cc3ccc(C(F)(F)F)cc3)C(=O)N(C)CC(=O)N[C@@H](CCc3cc(F)c(C(F)(F)F)c(F)c3)C(=O)N2C1 [PP1048] | C (A compound having a KD ratio of 0.1 or more and less than 3 is denoted as C) | C (A compound having a KD ratio of 0.1 or more and less than 3 is denoted as C) |  |  | 
12 | CCO[C@@H]1C[C@H]2C(=O)NC3(CC(C)(C)C3)C(=O)N(C)[C@@H](CC(C)(C)C)C(=O)N(C)[C@H](C(=O)N(C)C)CC(=O)N(C)[C@@H](COC)C(=O)N[C@@H]([C@@H](C)CC)C(=O)N(C3CC3)CC(=O)N(C)[C@H]3C/C=C\CCN(C3=O)[C@@H](Cc3ccc(C(F)(F)F)cc3)C(=O)N(C)CC(=O)N[C@@H](CCc3ccc(Cl)c(Cl)c3)C(=O)N2C1 [PP2750] |  |  | A (a compound having 10 or more and less than 20 is denoted as A) | AA (a compound having 20 or more is denoted as AA) | 
13 | CC[C@H](C)[C@@H]1NC(=O)[C@H](CC(C)C)N(C)C(=O)C[C@@H](C(=O)N(C)C)N(C)C(=O)[C@H](C2CCCC2)N(C)C(=O)C2(CCCC2)NC(=O)[C@@H]2CCCN2C(=O)[C@H](CCc2ccc(C(F)(F)F)c(Cl)c2)NC(=O)CN(C)C(=O)[C@H](Cc2ccc(F)cc2)N2CCCCC[C@@H](C2=O)N(C)C(=O)CN(C)C1=O [PP0971] | B (a compound having 3 or more and less than 10 is denoted as B) | B (a compound having 3 or more and less than 10 is denoted as B) |  |  | 
14 | CCC[C@H]1C(=O)N[C@@H]([C@@H](C)CC)C(=O)N(C)CC(=O)N(C)[C@H]2C/C=C\CCN(C2=O)[C@@H](Cc2ccc(C)cc2)C(=O)N(C)CC(=O)N[C@@H](CCc2cc(F)c(C(F)(F)F)c(F)c2)C(=O)N2C[C@H](CC)C[C@H]2C(=O)NC2(CCCC2)C(=O)N(C)[C@@H](C2CCCC2)C(=O)N(C)[C@H](C(=O)N(C)C)CC(=O)N1C [PP2216] | A (a compound having 10 or more and less than 20 is denoted as A) | A (a compound having 10 or more and less than 20 is denoted as A) |  |  | 
15 | CCO[C@@H]1C[C@H]2C(=O)NC3(CCC3)C(=O)N(C)[C@@H](C3CCCC3)C(=O)N(C)[C@H](C(=O)N(C)C)CC(=O)N(C)[C@@H](CC)C(=O)N[C@@H]([C@@H](C)CC)C(=O)N3CCCC[C@H]3C(=O)N(C)[C@H]3C/C=C\CCN(C3=O)[C@@H](Cc3ccc(C(F)(F)F)cc3)C(=O)N(C)CC(=O)N[C@@H](CCc3cc(F)c(C(F)(F)F)c(F)c3)C(=O)N2C1 [PP1058] | B (a compound having 3 or more and less than 10 is denoted as B) | A (a compound having 10 or more and less than 20 is denoted as A) |  |  | 
